Here are results for three molecules from patent US6680334B2, “Crystalline material” (Pfizer Inc, priority 2001, dated 2004).

The structures appear in SMILES notation. In brackets after ≈: the same amount, converted by molar mass. A value given as a limit tells only on which side of the number the result lay.

The format of data set [1] is physicochemical. The protocol:
The stability of crystalline amlodipine free base bulk and amlodipine free base tablets was assessed by storing samples for up to 6 or 12 weeks at 25° C./60% RH, 40° C./75% RH and 50° C./20% RH. Changes were monitored using a stability-indicating HPLC method. Results were calculated by normalised peak area (npa). Degradants were identified by comparison of their relative retention times against impurity standards.

The nature of data set [2]: Solubility in aqueous buffers of different pH. It is filed as physicochemical. Conditions: for solubility: aqueous buffer.

For `CCOC(=O)C1=C(COCCN)NC(C)=C(C(=O)OC)C1c1ccccc1Cl` (stereo not shown) [crystalline amlodipine free base, 2-[(2-aminoethoxy)]-methyl-4-(2-chlorophenyl)-3-ethoxycarbonyl-5-methoxycarbonyl-6-methyl-1,4-dihydropyridine], in data set [1], the “Stability with respect to formation of known and unknown degradants” value is on record as “stability was demonstrated”.

On to `CCOC(=O)C1=C(COCCN)NC(C)=C(C(=O)OC)C1c1ccccc1Cl` (stereo not shown) [solid free base initially synthesised, Amlodipine, reference compound], for which the “Solubility (in words)” value in data set [2] (solid free base initially synthesised in-house, no conditions given) is “poorly soluble”.

For orientation: solubility means how much of the substance goes into solution per volume. For the molecule `CCOC(=O)C1=C(COCCN)NC(C)=C(C(=O)OC)C1c1ccccc1Cl` (racemic) [Example 2, Amlodipine], the solubility in data set [2] (pH 1.2, simulated gastric fluid, SGN pH: 1.20) was more than 5000 µg/mL; in data set [2] (Acetate pH: 5.93), more than 5000 µg/mL; in data set [2] (Glycine pH: 9.25), 130 µg/mL (≈ 318 µM); in data set [2] (NaOH pH: 11.44), less than 50 µg/mL; in data set [2] (Phosphate pH: 7.71), 720 µg/mL (≈ 1760 µM).
